Patent US20240368121A1, “ESTROGEN RECEPTOR DEGRADERS, PHARMACEUTICAL COMPOSITIONS THEREOF, AND THEIR THERAPEUTIC APPLICATIONS” (BioTheryX, Inc., priority 2021, published 2024)

How the values were obtained:
Type in all cases: cell-based
MCF7 cells = experiment: Cell viability assay ([…]-GLO, 6-day treatment); settings: Homo sapiens, MCF7, 144 h; MCF-7 cells, 6 days, CTG; read-out: Inhibition of Cancerous Cells IC50 MCF-7
Procedure, shortened: (§1)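 MCF7 (MEM) and T47D (RPMI with insulin), both with 10% FBS, at 1,000 cells/well, treated with a 10-point compound dose series for 6 days, with medium and compound refreshed once. Viability read by CellTiter-Glo luminescence.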

T47D cells = experiment: Cell viability assay ([…]-GLO, 6-day treatment); settings: Homo sapiens, 144 h, 6 days, CTG, read-out: Inhibition of Cancerous Cells IC50 T47D
Procedure, shortened: as §1

ERα = molecular target: T1, ERα (Homo sapiens, UniProt P03372); experiment: Protein degradation assay: ERα in MCF-7 cells via western blot; settings: 6 h; for ERα Protein Degradation 1 nM: 1 nM compound; for ERα Protein Degradation 10 nM: 10 nM compound; for ERα Protein Degradation 100 nM: 100 nM compound
T1 construct: degrading an ERα in MCF-7 cells via a western blot; endogenous in cells; host or cells: MCF-7
T1 sequence (P03372 1-595): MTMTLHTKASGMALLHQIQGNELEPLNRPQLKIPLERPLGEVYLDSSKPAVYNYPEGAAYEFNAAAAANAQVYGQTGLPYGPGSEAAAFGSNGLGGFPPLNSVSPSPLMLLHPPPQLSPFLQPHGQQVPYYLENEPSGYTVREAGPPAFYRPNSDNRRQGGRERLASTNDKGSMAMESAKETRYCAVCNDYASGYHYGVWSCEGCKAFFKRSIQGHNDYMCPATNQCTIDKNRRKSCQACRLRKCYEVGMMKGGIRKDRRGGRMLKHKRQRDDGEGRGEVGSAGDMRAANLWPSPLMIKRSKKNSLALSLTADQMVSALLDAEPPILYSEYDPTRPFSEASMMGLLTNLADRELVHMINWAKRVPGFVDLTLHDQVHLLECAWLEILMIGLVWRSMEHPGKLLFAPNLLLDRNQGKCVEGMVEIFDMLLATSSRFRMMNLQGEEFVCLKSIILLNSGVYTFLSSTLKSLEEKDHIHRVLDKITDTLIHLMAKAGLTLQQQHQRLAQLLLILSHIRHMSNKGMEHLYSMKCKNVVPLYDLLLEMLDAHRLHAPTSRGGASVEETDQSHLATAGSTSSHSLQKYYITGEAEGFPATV
Procedure, shortened: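 MCF-7 cells in MEM/10% FBS with insulin, seeded 300,000/well, treated 6 h at set concentrations (e.g., 1 nM–1 μM). Whole-cell lysates immunoblotted for ERα with GAPDH loading control, chemiluminescent detection; percentage degradation reported in binned categories (≥50%, 25–50%, 10–25%, <10%).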

Row | SMILES | IC50 (MCF7 cells) | IC50 (T47D cells) | ERα Protein Degradation 1 nM (ERα) | ERα Protein Degradation 10 nM (ERα) | ERα Protein Degradation 100 nM (ERα)
1 | Cc1c(-c2ccc(O)cc2)n(Cc2ccc(OCCCCN3CCN(C(=O)COc4cccc5c(C6CCC(=O)NC6=O)nn(C)c45)CC3)cc2)c2ccc(O)cc12 (stereo not drawn) [Compound E7, 3-(7-(2-(4-(4-(4-((5-Hydroxy-2-(4-hydroxyphenyl)-3-methyl-1H-indol-1-yl)-methyl)phenoxy)butyl)piperazin-1-yl)-2-oxoethoxy)-1-methyl-1H-indazol-3-yl)piperidine-2,6-dione] | 1.1 nM | 0.64 nM | B (a percentage degradation value of less than 50% and no less than 25%) | A (a percentage degradation value of no less than 50%) | A (a percentage degradation value of no less than 50%)
2 | Cc1c(-c2ccc(O)cc2)n(Cc2ccc(OCCCCN3CCN(C(=O)COc4ccc5c(N6CCC(=O)NC6=O)nn(C)c5c4)CC3)cc2)c2ccc(O)cc12 [Compound E16, 1-(6-(2-(4-(4-(4-((5-Hydroxy-2-(4-hydroxyphenyl)-3-methyl-1H-indol-1-yl)-methyl)phenoxy)butyl)piperazin-1-yl)-2-oxoethoxy)-1-methyl-1H-indazol-3-yl)dihydro-pyrimidine-2,4(1H,3H)-dione] | 1.8 nM | 1.3 nM | C (a percentage degradation value of less than 25% and no less than 10%) | C (a percentage degradation value of less than 25% and no less than 10%) | D (a percentage degradation value of less than 10%)
3 | Cc1c(-c2ccc(O)cc2)n(Cc2ccc(OCCCCN3CCN(C(=O)COc4ccc(N5CCC(=O)NC5=O)cc4)CC3)cc2)c2ccc(O)cc12 [Compound E27, 1-(4-(2-(4-(4-(4-((5-hydroxy-2-(4-hydroxyphenyl)-3-methyl-1H-indol-1-yl)-methyl)phenoxy)butyl)piperazin-1-yl)-2-oxoethoxy)phenyl)dihydropyrimidine-2,4(1H,3H)-dione] | 5.6 nM | 3.2 nM | D (a percentage degradation value of less than 10%) | D (a percentage degradation value of less than 10%) | D (a percentage degradation value of less than 10%)
